Data taken from patent publication US12486273B2 (Hoffmann-La Roche Inc., priority 2019, dated 2025).

What was measured:
Type in all cases: cell-based
human TLR7 = human TLR7 (Homo sapiens (Human), UniProt Q9NYK1); assay: HEK293-Blue-hTLR-7 cells assay; details: HEK293-Blue-hTLR7 cells, R848 stimulation, 20 hrs, SEAP reporter; read-out: HEK/hTLR7 IC50
Excerpt: HEK293-BLUE-hTLR-7 CELLS ASSAY:
(§1) A stable HEK293-Blue-hTLR-7 cell line was purchased from InvivoGen (Cat. #: hkb-htlr7, San Diego, California, USA). These cells were originally designed for studying the stimulation of human TLR7 by monitoring the activation of NF-κB. A SEAP (secreted embryonic alkaline phosphatase) reporter gene was placed under the control of the IFN-β minimal promoter fused to five NF-κB and AP-1-binding sites. The SEAP was induced by activating NF-κB and AP-1 via stimulating HEK-Blue hTLR7 cells with TLR7 ligands. Therefore the reporter expression was declined by TLR7 antagonist under the stimulation of a ligand, such as R848 (Resiquimod), for incubation of 20 hrs. The cell culture supernatant SEAP reporter activity was determined using QUANTI-Blue™ kit (Cat. #: rep-qb1, Invivogen, San Diego, Ca, USA) at a wavelength of 640 nm, a detection medium that turns purple or blue in the presence of alkaline phosphatase.
(§2) HEK293-Blue-hTLR7 cells were incubated at a density of 250,000˜450,000 cells/mL in a volume of 170 μL in a 96-well plate in Dulbecco's Modified Eagle's medium (DMEM) containing 4.5 g/L glucose, 50 U/mL penicillin, […], […], 2 mM L-glutamine, 10% (v/v) heat-inactivated fetal bovine serum with addition of 20 μL test compound in a serial dilution in the presence of final DMSO at 1% and 10 μL of 20 μM R848 in above DMEM, perform incubation under 37° C. in a CO2 incubator for 20 hrs. Then 20 μL of the supernatant from each well was incubated with 180 μL Quanti-blue substrate solution at 37° C. for 2 hrs and the absorbance was read at 620-655 nm using a spectrophotometer. The signaling pathway that TLR7 activation leads to downstream NF-κB activation has been widely accepted, and therefore similar reporter assay was modified for evaluating TLR7 antagonist.

human TLR8 = human TLR8 (Homo sapiens (Human), UniProt Q9NR97); assay: HEK293-Blue-hTLR-8 cells assay; details: HEK293-Blue-hTLR8 cells, R848 stimulation, 20 hrs, SEAP reporter; read-out: HEK/hTLR8 IC50
Excerpt: HEK293-Blue-hTLR-8 Cells Assay:
as §1, with “HEK293-Blue-hTLR-8” for “HEK293-Blue-hTLR-7”, “hkb-htlr8,” for “hkb-htlr7,”, “TLR8” for “TLR7”, “hTLR8” for “hTLR7”, “R848,” for “R848 (Resiquimod),”, “rep-Qb1,” for “rep-qb1,”
HEK293-Blue-hTLR8 cells were incubated at a density of 250,000-450,000 cells/mL in a volume of 170 μL in a 96-well plate in Dulbecco's Modified Eagle's medium (DMEM) containing 4.5 g/L glucose, 50 U/mL penicillin, […], […], 2 mM L-glutamine, 10% (v/v) heat-inactivated fetal bovine serum with addition of 20 μL test compound in a serial dilution in the presence of final DMSO at 1% and 10 μL of 60 μM R848 in above DMEM, perform incubation under 37° C. in a CO2 incubator for 20 hrs. Then 20 μL of the supernatant from each well was incubated with 180 μL Quanti-blue substrate solution at 37° C. for […] and the absorbance was read at 620˜655 nm using a spectrophotometer. The signaling pathway that TLR8 activation leads to downstream NF-κB activation has been widely accepted, and therefore similar reporter assay was modified for evaluating TLR8 antagonist.

human TLR9 = human TLR9 (Homo sapiens (Human), UniProt Q9NR96); assay: HEK293-Blue-hTLR-9 cells assay; details: HEK293-Blue-hTLR9 cells, ODN2006 stimulation, 20 hrs, SEAP reporter; read-out: HEK/hTLR9 IC50
Excerpt: HEK293-Blue-hTLR-9 Cells Assay:
A stable HEK293-Blue-hTLR-9 cell line was purchased from InvivoGen (Cat. #: hkb-htlr9, San Diego, California, USA). These cells were originally designed for studying the stimulation of human TLR9 by monitoring the activation of NF-κB. A SEAP (secreted embryonic alkaline phosphatase) reporter gene was placed under the control of the IFN-β minimal promoter fused to five NF-κB and AP-1-binding sites. The SEAP was induced by activating NF-κB and AP-via stimulating HEK-Blue hTLR9 cells with TLR9 ligands. Therefore the reporter expression was declined by TLR9 antagonist under the stimulation of a ligand, such as ODN2006 (Cat. #: tlrl-2006-1, Invivogen, San Diego, California, USA), for incubation of 20 hrs. The cell culture supernatant SEAP reporter activity was determined using QUANTI-Blue™ kit (Cat. #: rep-qb1, Invivogen, San Diego, California, USA) at a wavelength of 640 nm, a detection medium that turns purple or blue in the presence of alkaline phosphatase.
as §2, with “HEK293-Blue-hTLR9 cells” for “HEK293-Blue-hTLR7 cells”, “μM ODN2006” for “μM R848”, “2 h” for “2 hrs”, “that TLR9” for “that TLR7”, “evaluating TLR9” for “evaluating TLR7”

Chain of human TLR7 (Q9NYK1 27-1049): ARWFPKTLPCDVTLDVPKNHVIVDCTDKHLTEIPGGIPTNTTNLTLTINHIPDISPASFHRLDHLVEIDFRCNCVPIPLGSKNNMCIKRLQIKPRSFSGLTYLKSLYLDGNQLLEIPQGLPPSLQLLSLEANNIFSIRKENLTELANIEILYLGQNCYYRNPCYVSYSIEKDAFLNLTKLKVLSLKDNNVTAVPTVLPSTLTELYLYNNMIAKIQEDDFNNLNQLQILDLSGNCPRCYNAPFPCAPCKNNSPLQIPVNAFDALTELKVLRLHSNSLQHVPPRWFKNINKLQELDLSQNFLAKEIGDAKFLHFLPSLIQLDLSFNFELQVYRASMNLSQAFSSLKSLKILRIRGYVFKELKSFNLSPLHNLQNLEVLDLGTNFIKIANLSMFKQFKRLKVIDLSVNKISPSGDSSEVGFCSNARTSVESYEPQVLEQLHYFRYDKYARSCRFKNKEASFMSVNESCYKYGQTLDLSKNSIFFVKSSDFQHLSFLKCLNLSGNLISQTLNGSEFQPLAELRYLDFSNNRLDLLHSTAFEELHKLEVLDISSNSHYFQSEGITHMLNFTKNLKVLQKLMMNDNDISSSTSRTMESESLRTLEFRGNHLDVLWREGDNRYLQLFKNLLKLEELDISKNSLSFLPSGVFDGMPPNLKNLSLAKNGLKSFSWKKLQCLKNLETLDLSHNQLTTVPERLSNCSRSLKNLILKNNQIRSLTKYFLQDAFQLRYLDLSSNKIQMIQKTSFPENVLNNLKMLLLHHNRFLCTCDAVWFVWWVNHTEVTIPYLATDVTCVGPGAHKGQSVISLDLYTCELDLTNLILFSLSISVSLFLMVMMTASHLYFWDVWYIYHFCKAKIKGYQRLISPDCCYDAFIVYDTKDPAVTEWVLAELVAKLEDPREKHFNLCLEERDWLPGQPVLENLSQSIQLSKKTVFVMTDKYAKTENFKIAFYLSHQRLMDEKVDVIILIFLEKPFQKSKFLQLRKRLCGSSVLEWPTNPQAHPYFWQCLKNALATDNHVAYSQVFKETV
Chain of human TLR8 (Q9NR97 27-1041): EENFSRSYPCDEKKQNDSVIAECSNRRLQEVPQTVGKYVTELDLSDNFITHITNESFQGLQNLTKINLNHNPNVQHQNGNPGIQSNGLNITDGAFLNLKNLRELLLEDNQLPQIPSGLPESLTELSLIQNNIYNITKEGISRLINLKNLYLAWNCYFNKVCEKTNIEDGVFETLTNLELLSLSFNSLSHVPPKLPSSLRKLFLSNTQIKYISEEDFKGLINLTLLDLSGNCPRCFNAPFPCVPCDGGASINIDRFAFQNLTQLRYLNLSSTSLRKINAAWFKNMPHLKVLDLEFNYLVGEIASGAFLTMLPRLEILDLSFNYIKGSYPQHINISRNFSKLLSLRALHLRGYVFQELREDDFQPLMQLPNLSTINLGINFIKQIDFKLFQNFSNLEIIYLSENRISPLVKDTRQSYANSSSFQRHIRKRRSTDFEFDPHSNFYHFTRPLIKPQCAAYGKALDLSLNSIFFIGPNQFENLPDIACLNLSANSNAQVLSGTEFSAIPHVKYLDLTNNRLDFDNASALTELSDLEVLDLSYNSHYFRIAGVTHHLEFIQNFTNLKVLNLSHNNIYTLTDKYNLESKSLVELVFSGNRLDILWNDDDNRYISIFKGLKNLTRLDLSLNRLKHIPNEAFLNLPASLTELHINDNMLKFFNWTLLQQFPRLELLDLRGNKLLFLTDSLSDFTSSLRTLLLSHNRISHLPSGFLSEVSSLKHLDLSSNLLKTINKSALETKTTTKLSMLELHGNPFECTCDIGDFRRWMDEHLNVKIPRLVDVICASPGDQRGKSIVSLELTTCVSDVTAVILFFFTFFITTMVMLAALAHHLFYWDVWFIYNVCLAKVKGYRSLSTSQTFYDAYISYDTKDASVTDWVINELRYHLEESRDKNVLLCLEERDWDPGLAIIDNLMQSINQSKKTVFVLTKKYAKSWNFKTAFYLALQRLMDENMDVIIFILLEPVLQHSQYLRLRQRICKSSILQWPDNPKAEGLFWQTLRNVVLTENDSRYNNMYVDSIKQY
Chain of human TLR9 (Q9NR96 26-1032): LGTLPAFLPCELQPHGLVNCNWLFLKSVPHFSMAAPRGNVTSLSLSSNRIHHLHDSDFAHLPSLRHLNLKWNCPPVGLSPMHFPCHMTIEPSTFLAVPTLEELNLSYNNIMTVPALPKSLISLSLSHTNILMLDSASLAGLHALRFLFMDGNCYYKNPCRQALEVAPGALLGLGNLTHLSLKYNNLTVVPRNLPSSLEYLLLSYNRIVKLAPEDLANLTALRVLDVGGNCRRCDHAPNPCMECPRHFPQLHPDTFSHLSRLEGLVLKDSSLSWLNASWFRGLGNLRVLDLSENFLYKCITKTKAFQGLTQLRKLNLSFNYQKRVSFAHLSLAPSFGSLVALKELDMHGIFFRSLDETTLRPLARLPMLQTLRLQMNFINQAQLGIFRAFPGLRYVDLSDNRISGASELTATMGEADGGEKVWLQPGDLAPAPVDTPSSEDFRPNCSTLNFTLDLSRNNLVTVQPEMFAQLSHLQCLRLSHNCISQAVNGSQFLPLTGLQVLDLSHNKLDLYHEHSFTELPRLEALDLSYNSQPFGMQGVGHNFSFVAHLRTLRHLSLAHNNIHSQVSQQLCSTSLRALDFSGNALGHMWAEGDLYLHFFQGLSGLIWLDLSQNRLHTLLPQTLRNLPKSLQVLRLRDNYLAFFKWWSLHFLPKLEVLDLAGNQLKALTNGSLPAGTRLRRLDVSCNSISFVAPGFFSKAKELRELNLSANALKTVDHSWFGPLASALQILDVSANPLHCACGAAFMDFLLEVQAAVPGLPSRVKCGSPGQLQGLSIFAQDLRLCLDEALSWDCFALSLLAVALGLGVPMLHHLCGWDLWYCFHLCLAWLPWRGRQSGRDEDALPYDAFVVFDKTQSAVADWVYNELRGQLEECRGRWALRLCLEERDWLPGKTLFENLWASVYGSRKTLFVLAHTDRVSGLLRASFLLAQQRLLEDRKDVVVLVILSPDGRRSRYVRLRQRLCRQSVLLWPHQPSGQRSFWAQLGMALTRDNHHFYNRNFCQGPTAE

| Compound | IC50 (human TLR7) [nM] | IC50 (human TLR8) [nM] | IC50 (human TLR9) [nM] |
| --- | --- | --- | --- |
| C[C@@H]1CN(c2ccc(C#N)c3ncccc23)C[C@@H]2CC(N3CCN(c4cc5c(cn4)CCNC5)CC3)CN21 (stereo in doubt) [Example 13, 5-[(4R,7R,8aS)-4-methyl-7-[4-(5,6,7,8-tetrahydro-2,6-naphthyridin-3-yl)piperazin-1-yl]-3,4,6,7,8,8a-hexahydro-1H-pyrrolo[1,2-a]pyrazin-2-yl]quinoline-8-carbonitrile] | 14.9 | 8.2 | 49 |
| C[C@@H]1CN(c2ccc(C#N)c3ncccc23)C[C@@H]2C[C@@H](Nc3ccc4c(n3)CCN(C)C4)CN21 [Example 4, 5-[(4R,7R,8aS)-4-methyl-7-[(6-methyl-7,8-dihydro-5H-1,6-naphthyridin-2-yl)amino]-3,4,6,7,8,8a-hexahydro-1H-pyrrolo[1,2-a]pyrazin-2-yl]quinoline-8-carbonitrile] | 21.7 | 6.3 | 147 |
| C[C@@H]1CN(c2ccc(C#N)c3ncccc23)C[C@@H]2C[C@@H](N(C)c3ccc4c(n3)CCNC4)CN21 [Example 5, 5-[(4R,7R,8aS)-4-methyl-7-[methyl(5,6,7,8-tetrahydro-1,6-naphthyridin-2-yl)amino]-3,4,6,7,8,8a-hexahydro-1H-pyrrolo[1,2-a]pyrazin-2-yl]quinoline-8-carbonitrile] | 16.9 | 2.9 | 78.1 |
| C[C@@H]1CN(c2ccc(C#N)c3ncccc23)C[C@@H]2C[C@@H](Nc3ncc4c(n3)CCNC4)CN21 [Example 6, 5-[(4R,7R,8aS)-4-methyl-7-(5,6,7,8-tetrahydropyrido[4,3-d]pyrimidin-2-ylamino)-3,4,6,7,8,8a-hexahydro-1H-pyrrolo[1,2-a]pyrazin-2-yl]quinoline-8-carbonitrile] | 18.8 | 12.9 | 157 |
| C[C@@H]1CN(c2ccc(C#N)c3ncccc23)C[C@@H]2C[C@@H](Nc3ccc4c(n3)CN[C@@H]4C)CN21 [Example 7A, 5-[(4R,7R,8aS)-4-methyl-7-[[(5R)-5-methyl-6,7-dihydro-5H-pyrrolo[3,4-b]pyridin-2-yl]amino]-3,4,6,7,8,8a-hexahydro-1H-pyrrolo[1,2-a]pyrazin-2-yl]quinoline-8-carbonitrile] | 17.7 | 9 | 53.5 |
| C[C@@H]1NCc2nc(N[C@@H]3C[C@H]4CN(c5ccc(C#N)c6ncccc56)C[C@@H](C)N4C3)ccc21 [Example 7B, 5-[(4R,7R,8aS)-4-methyl-7-[[(5S)-5-methyl-6,7-dihydro-5H-pyrrolo[3,4-b]pyridin-2-yl]amino]-3,4,6,7,8,8a-hexahydro-1H-pyrrolo[1,2-a]pyrazin-2-yl]quinoline-8-carbonitrile] | 29.8 | 11.3 | 56.5 |
| C[C@@H]1CN(c2ccc(C#N)c3ncccc23)C[C@@H]2C[C@@H](Nc3ccc4c(n3)C[C@H](C)NC4)CN21 [Example 8A, 5-[(4R,7R,8aS)-4-methyl-7-[[(7S)-7-methyl-5,6,7,8-tetrahydro-1,6-naphthyridin-2-yl]amino]-3,4,6,7,8,8a-hexahydro-1H-pyrrolo[1,2-a]pyrazin-2-yl]quinoline-8-carbonitrile] | 11.1 | 3.6 | 63.1 |
| C[C@@H]1Cc2nc(N[C@@H]3C[C@H]4CN(c5ccc(C#N)c6ncccc56)C[C@@H](C)N4C3)ccc2CN1 [Example 8B, 5-[(4R,7R,8aS)-4-methyl-7-[[(7R)-7-methyl-5,6,7,8-tetrahydro-1,6-naphthyridin-2-yl]amino]-3,4,6,7,8,8a-hexahydro-1H-pyrrolo[1,2-a]pyrazin-2-yl]quinoline-8-carbonitrile] | 14.7 | 7.5 | 89.4 |
| C[C@@H]1CN(c2ccc(C#N)c3ncccc23)C[C@@H]2C[C@H](N3CCc4cc(N5CCNCC5)ccc4C3)CN21 [Example 10, 5-[(4R,7S,8aS)-4-methyl-7-(6-piperazin-1-yl-3,4-dihydro-1H-isoquinolin-2-yl)-3,4,6,7,8,8a-hexahydro-1H-pyrrolo[1,2-a]pyrazin-2-yl]quinoline-8-carbonitrile] | 30.1 | 24.9 | 81.1 |
| CO[C@@H]1CN(c2ccc3c(n2)CCN([C@H]2C[C@H]4CN(c5ccc(C#N)c6ncccc56)C[C@@H](C)N4C2)C3)C[C@H]1N [Example 11, 5-[(4R,7S,8aS)-7-[2-[(3R,4R)-3-amino-4-methoxy-pyrrolidin-1-yl]-7,8-dihydro-5H-1,6-naphthyridin-6-yl]-4-methyl-3,4,6,7,8,8a-hexahydro-1H-pyrrolo[1,2-a]pyrazin-2-yl]quinoline-8-carbonitrile] | 23.4 | 8.5 | 59.2 |
| CO[C@@H]1CN(c2cc3c(cn2)CCN([C@H]2C[C@H]4CN(c5ccc(C#N)c6ncccc56)C[C@@H](C)N4C2)C3)C[C@H]1N [Example 12, 5-[(4R,7S,8aS)-7-[7-[(3R,4R)-3-amino-4-methoxy-pyrrolidin-1-yl]-3,4-dihydro-1H-2,6-naphthyridin-2-yl]-4-methyl-3,4,6,7,8,8a-hexahydro-1H-pyrrolo[1,2-a]pyrazin-2-yl]quinoline-8-carbonitrile] | 45.1 | 17.2 | 108 |
| C[C@@H]1CN(c2ccc(C#N)c3ncccc23)C[C@@H]2CC(Oc3ccc4c(n3)CCNC4)CN21 (stereo partly drawn) [Example 14, 5-[(4R,8aS)-4-methyl-7-(5,6,7,8-tetrahydro-1,6-naphthyridin-2-yloxy)-3,4,6,7,8,8a-hexahydro-1H-pyrrolo[1,2-a]pyrazin-2-yl]quinoline-8-carbonitrile] | 16.2 | 4 | 247 |
